Earlier results as cited in patent US6838238B1, “Morphatides: novel shape and structure libraries” (Invitrogen Corporation, priority 1996, dated 2005).

Conditions: ionizes by hydration to yield the tetrahedral phenylboronate anion

pKa: 8.86
Compound: OB(O)c1ccccc1 [Phenylboronic acid]
